# Source: ChEMBL document CHEMBL4190189, “Exploring Jolkinol D Derivatives To Overcome Multidrug Resistance in Cancer” (J Nat Prod, 2017)
# Activity calls are given as the source filed them. No cut-off for these calls is given here.
# Experiments:
# [1] = target: T1, ATP-dependent translocase ABCB1 (Homo sapiens, UniProt P08183); assay: Modulation of human ABCB1 expressed in mouse L5178Y cells assessed as fluorescence activity ratio at 2 uM pretreated for 10 mins followed by rhodamine-123 addition measured after 20 mins by flow cytometry (reference value: 0.87); assay type: cell-based
# T1 sequence (P08183 whole entry): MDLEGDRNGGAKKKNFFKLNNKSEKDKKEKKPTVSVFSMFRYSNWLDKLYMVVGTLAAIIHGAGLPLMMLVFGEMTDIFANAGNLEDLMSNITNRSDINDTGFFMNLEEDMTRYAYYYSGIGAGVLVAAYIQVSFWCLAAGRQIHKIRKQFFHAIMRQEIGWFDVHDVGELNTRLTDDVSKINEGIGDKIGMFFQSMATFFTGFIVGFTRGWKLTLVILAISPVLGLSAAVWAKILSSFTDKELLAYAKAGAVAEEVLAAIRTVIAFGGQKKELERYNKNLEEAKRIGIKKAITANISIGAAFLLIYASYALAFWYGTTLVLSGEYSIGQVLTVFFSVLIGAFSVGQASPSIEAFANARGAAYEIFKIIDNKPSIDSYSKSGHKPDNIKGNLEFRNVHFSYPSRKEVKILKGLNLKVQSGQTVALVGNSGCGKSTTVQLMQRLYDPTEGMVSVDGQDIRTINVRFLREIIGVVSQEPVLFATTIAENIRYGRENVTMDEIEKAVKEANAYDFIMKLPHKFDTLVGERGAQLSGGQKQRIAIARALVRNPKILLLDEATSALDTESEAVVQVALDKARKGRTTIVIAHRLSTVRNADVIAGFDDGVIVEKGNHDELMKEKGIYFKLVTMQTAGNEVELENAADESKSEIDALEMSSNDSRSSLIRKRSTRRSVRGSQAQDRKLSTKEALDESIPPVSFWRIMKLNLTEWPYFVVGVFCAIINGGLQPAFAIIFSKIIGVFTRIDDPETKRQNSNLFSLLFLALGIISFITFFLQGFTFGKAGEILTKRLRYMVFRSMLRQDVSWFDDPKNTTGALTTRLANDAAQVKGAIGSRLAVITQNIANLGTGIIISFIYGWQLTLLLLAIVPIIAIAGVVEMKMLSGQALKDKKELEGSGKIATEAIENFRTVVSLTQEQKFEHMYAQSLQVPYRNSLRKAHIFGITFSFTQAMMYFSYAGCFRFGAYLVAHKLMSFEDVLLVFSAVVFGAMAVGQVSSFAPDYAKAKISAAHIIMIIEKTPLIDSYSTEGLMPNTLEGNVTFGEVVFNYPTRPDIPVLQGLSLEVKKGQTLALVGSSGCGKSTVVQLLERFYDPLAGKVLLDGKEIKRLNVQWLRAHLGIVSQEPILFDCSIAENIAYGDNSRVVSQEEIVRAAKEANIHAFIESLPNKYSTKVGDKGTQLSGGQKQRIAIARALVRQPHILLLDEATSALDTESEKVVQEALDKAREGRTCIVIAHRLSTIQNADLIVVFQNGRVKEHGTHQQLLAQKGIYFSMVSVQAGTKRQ
# L5178Y [2] = assay: Cytotoxicity against mouse L5178Y cells transfected with human ABCB1 assessed as reduction in cell viability after 72 hrs by MTT assay; assay type: functional, cell-based
# [3] = Resistance ratio of IC50 for human EPP85-181P cells to IC50 for human EPP85-181RDB cells; assay type: functional
# L5178Y [4] = assay: Cytotoxicity against mouse L5178Y cells assessed as reduction in cell viability after 72 hrs by MTT assay; assay type: cell-based
# [5] = Resistance ratio of IC50 for human EPP85-181P cells to IC50 for human EPP85-181RNOV cells; assay type: functional
# [6] = target: T1, ATP-dependent translocase ABCB1; assay: Modulation of human ABCB1 expressed in mouse L5178Y cells assessed as fluorescence activity ratio at 20 uM pretreated for 10 mins followed by rhodamine-123 addition measured after 20 mins by flow cytometry (reference value: 0.87); assay type: cell-based
# [7] = Resistance ratio of IC50 for human EPG85-257P cells to IC50 for human EPG85-257RDB cells; assay type: functional
# [8] = target: T1, ATP-dependent translocase ABCB1; assay: Inhibition of human ABCB1 expressed in mouse L5178Y cells assessed as potentiation of doxorubicin-induced cytotoxicity by measuring combination index at 25:1 compound to doxorubicin ratio after 48 hrs by MTT assay; assay type: cell-based
# [9] = target: T1, ATP-dependent translocase ABCB1; assay: Inhibition of human ABCB1 expressed in mouse L5178Y cells assessed as potentiation of doxorubicin-induced cytotoxicity by measuring combination index at 5:1 compound to doxorubicin ratio after 48 hrs by MTT assay; assay type: cell-based
# [10] = Cytotoxicity against human EPG85-257RNOV cells assessed as reduction in cell viability after 5 days by SRB assay; assay type: functional, cell-based; conditions: 120 h
# [11] = target: T1, ATP-dependent translocase ABCB1; assay: Inhibition of human ABCB1 expressed in mouse L5178Y cells assessed as potentiation of doxorubicin-induced cytotoxicity by measuring combination index at 400:1 compound to doxorubicin ratio after 48 hrs by MTT assay; assay type: cell-based
# [12] = target: T2, ABCB1 (P-glycoprotein) ATPase (Homo sapiens, UniProt P08183); assay: Inhibition of human ABCB1 ATPase activity expressed in Sf9 insect cell membranes assessed as reduction in verapamil-stimulated vanadate-sensitive ATPase activity at 25 to 100 uM measured after 10 mins by colorimetric method relative to control; conditions: Sf9 insect cell membranes expressing human ABCB1, probe verapamil (ATPase stimulator)
# T2 sequence (P08183 whole entry): as above
# [13] = target: T2, ABCB1 (P-glycoprotein) ATPase; assay: Inhibition of human ABCB1 ATPase activity expressed in Sf9 insect cell membranes assessed as reduction in verapamil-stimulated vanadate-sensitive ATPase activity at 3.13 to […] uM measured after 10 mins by colorimetric method relative to control; conditions: Sf9 insect cell membranes expressing human ABCB1, probe verapamil (ATPase stimulator)
# [14] = target: T1, ATP-dependent translocase ABCB1; assay: Activation of human ABCB1 ATPase activity expressed in Sf9 insect cell membranes assessed as increase in vanadate-sensitive basal ATPase activity at 0.78 to 100 uM measured after 10 mins by colorimetric method relative to control
# [15] = target: T1, ATP-dependent translocase ABCB1; assay: Inhibition of human ABCB1 expressed in mouse L5178Y cells assessed as potentiation of doxorubicin-induced cytotoxicity by measuring combination index at 50:1 compound to doxorubicin ratio after 48 hrs by MTT assay; assay type: cell-based
# Homo sapiens [16] = species: Homo sapiens; assay: Induction of apoptosis in human EPG85-257RDB cells assessed as caspase-3 activation at 30 uM after 72 hrs by flow cytometric method relative to control; assay type: functional
# Homo sapiens [17] = species: Homo sapiens; assay: Induction of apoptosis in human EPG85-257RDB cells at 30 uM after 72 hrs by annexin-V/propidium iodide staining based flow cytometric method relative to control; assay type: functional
# [18] = Induction of apoptosis in human EPG85-257P cells at 30 uM after 72 hrs by annexin-V/propidium iodide staining based flow cytometric method relative to control; assay type: cell-based
# [19] = Cytotoxicity against human EPG85-257P cells assessed as reduction in cell viability after 5 days by SRB assay; assay type: cell-based; conditions: 120 h
# [20] = Cytotoxicity against human EPG85-257RDB cells assessed as reduction in cell viability after 5 days by SRB assay; assay type: functional, cell-based; conditions: 120 h
# [21] = target: T1, ATP-dependent translocase ABCB1; assay: Inhibition of human ABCB1 expressed in mouse L5178Y cells assessed as potentiation of doxorubicin-induced cytotoxicity by measuring combination index at 18:1 compound to doxorubicin ratio after 48 hrs by MTT assay; assay type: cell-based
# Homo sapiens [22] = species: Homo sapiens; assay: Induction of apoptosis in human EPG85-257RNOV cells at 30 uM after 72 hrs by annexin-V/propidium iodide staining based flow cytometric method relative to control; assay type: functional
# [23] = Induction of apoptosis in human EPG85-257P cells assessed as caspase-3 activation at 30 uM after 72 hrs by flow cytometric method relative to control; assay type: cell-based; conditions: 72 h, 30 µM
# Homo sapiens [24] = species: Homo sapiens; assay: Induction of apoptosis in human EPG85-257RNOV cells assessed as caspase-3 activation at 30 uM after 72 hrs by flow cytometric method relative to control; assay type: functional
Ratio [1],Ratio [6],Structure (SMILES),IC50 (L5178Y [2]) [µM],IC50 (L5178Y [4]) [µM],Ratio IC50 [7],further results
4.8,19,C/C1=C/[C@H]2[C@@H](OC(=O)c3ccc(-c4ccccc4)cc3)[C@@H](C)C[C@]2(O)C(=O)/C(C)=C/[C@@H]2[C@H](CC1)C2(C)C,> 80,> 19,–,Ratio IC50 [3]: 0.4; Ratio IC50 [5]: 0.4
26.1,36.4,COc1cccc(C(=O)O[C@H]2[C@@H](C)C[C@]3(OC(C)=O)C(=O)/C(C)=C/[C@@H]4[C@H](CC/C(C)=C\[C@@H]23)C4(C)C)c1,> 19,> 19,0.3,CI [8]: 0.84
3.1,18.7,CCOC(=O)O[C@H]1[C@@H](C)C[C@]2(OC(C)=O)C(=O)/C(C)=C/[C@@H]3[C@H](CC/C(C)=C\[C@@H]12)C3(C)C,> 19,> 19,0.4,CI [9]: 1.22; IC50 [10]: < 10 µM
11.9,31.9,CC(=O)O[C@]12C[C@H](C)[C@H](OC(=O)c3ccc4ccccc4c3)[C@@H]1/C=C(/C)CC[C@H]1[C@@H](/C=C(\C)C2=O)C1(C)C,> 19,> 19,–,CI [11]: 0.06
3,9.9,C/C1=C/[C@H]2[C@@H](OC(=O)c3ccc(C(F)(F)F)cc3)[C@@H](C)C[C@]2(O)C(=O)/C(C)=C/[C@@H]2[C@H](CC1)C2(C)C,> 80,> 19,–,Ratio IC50 [3]: 0.4
–,–,CC(=O)O[C@]12C[C@H](C)[C@H](O)[C@@H]1/C=C(\C)CC[C@H]1[C@@H](/C=C(\C)C2=O)C1(C)C [JOLKINOL D],–,–,–,inhibition at 10 min [12]: 9 to 33%; inhibition at 10 min [13]: 14 to 40%; Activity [14]: 66 to 87%
28.6,41.5,CC(=O)O[C@]12C[C@H](C)[C@H](OC(=O)/C=C/c3ccccc3)[C@@H]1/C=C(/C)CC[C@H]1[C@@H](/C=C(\C)C2=O)C1(C)C,> 19,> 19,0.2,CI [15]: 1.13
10.8,19.5,CC(=O)O[C@]12C[C@H](C)[C@H](OC(=O)Oc3ccccc3)[C@@H]1/C=C(/C)CC[C@H]1[C@@H](/C=C(\C)C2=O)C1(C)C,> 19,> 19,0.4,Activity (Homo sapiens [16]): Active; Activity (Homo sapiens [17]): Active; Activity [18]: Toxic; IC50 [10]: 5.55 µM; IC50 [19]: 6.24 µM; IC50 [20]: 2.34 µM; CI [21]: 0.5; Activity (Homo sapiens [22]): Active; Activity [23]: Toxic; Activity (Homo sapiens [24]): Active
